Data on three compounds can be found in US20180327354A1, “Unnatural Analogues of Calcitriol and Uses Thereof” (Vidasym, Inc., priority 2009, published 2018).

One data set concerns VDR. As to the kind of experiment: VDR expression induction in primary culture of human coronary artery smooth muscle cells. The settings on record: HCASMC. It is filed as cell-based. As for the experimental part:
(§1) Compounds were tested in a primary culture of HCASMC to assess their potency in inducing the expression of CYP24A1 and VDR.
(§2) Primary culture of HCASMC was grown in smooth muscle growth medium SmGM-2 containing 5.5 mM glucose, 5% FBS, 50 μg/ml gentamicin, 50 ng/ml amphotericin-B, 5 μg/ml insulin, 2 ng/ml hFGF, and 0.5 ng/ml hEGF at 37° C. in a humidified 5% CO2-95% air. Cells were grown to >80% confluence and used within five passages.
(§3) Cells were plated into 6 well plates and treated with test agent for 24 h. Cells were lysed with the addition of 1 mL of Trizol and RNA prepared according to the manufacturer's protocol.
(§4) Real-time reverse transcription-PCR was performed with the forward and reverse PCR primers and […] of the TAQMAN™ probe specifically designed for CYP24A1 or VDR. (A TAQMAN™ probe is comprised of a fluorophore covalently attached to the 5′-end of the oligonucleotide probe and a quencher at the 3′-end.) After the data acquisition, the CYP24A1 or VDR mRNA expression level was normalized to the GAPDH mRNA level. […] Group mean±STDEV (standard deviation) are presented.

A short description of data set [1]: Maximal absorbance wavelength and extinction coefficient (spectrophotometer scan). It is filed as physicochemical. The settings on record: for maximal absorbance wavelength / extinction coefficient: 100 μM in 50:50 de-ionized water and ethanol; for extinction coefficient: in M-1·cm-1 (unit assumed). As for the experimental part:
To determine the maximal absorbance wavelength (ODmax) and the extinction coefficients for the compounds, each compound is diluted in a 50:50 solution (by volume) of de-ionized water and ethanol at 100 μM and scanned by a spectrophotometer.

Data set [2] concerns 5/6 nephrectomized uremic rats. As to the kind of experiment: Serum creatinine, BUN, PTH, phosphorus and calcium in 5/6 nephrectomized uremic rats. It is filed as in vivo, Sprague Dawley rats. The settings on record: for effect on BUN / effect on serum creatinine / effect on serum phosphorus / effect on serum PTH / effect on serum calcium: 5/6 NX rats. The method, then: The nephrectomy of male, Sprague Dawley, 5/6 rats was performed using a standard two-step surgical ablation procedure (starting body weight ˜200 gm) as previously described (Slatopolsky et al., 1998, Am J Kidney Dis 32: S40-47). Sham operated rats were used as control. The rats were on a diet containing 1.13% calcium and 0.94% phosphorus. Six weeks after the second surgery, treatment was initiated with vehicle (5% ethanol+95% propylene glycol, 0.4 ml/kg) or test agent by intraperitoneal injection (i.p.), 3 times/week, for two weeks (n≥12 per group). Twenty-four hours after the last dose, retro-orbital venous blood was collected for measurement of PTH and other endpoints.
Calcium, serum phosphorus, creatinine, and blood urea nitrogen (BUN) concentrations were measured by a chemistry analyzer (LX-20, Beckman). Serum PTH was measured using a rat intact parathyroid hormone (i-PTH) ELISA kit. For serum chemistry data, group mean±SEM are presented. A t-test was used to analyze differences between baseline 6W (6 weeks after surgery before treatment) and 8W (8 weeks after surgery after two weeks of compound treatment).

The subject of another data set is normal mice. Kind of data set: Hypercalcemic side effect profile and serum PTH in normal mice. The class given is in vivo, Male C57/BL mice. Conditions: for dose at which compound starts to raise serum Ca: i.p. dosing once daily for 3 consecutive days. The method, then: The normal mice model is a convenient and quick way to assess the hypercalcemic side effect profile of compounds. At the same time, data on serum PTH can be collected.
Male C57/BL mice at 18-20 g are dosed with the test agent at 100 al/mouse (concentrations as indicated) i.p. once daily for 3 consecutive days or at 10 ml/kg, p.o. gavage, once daily for 5 days. The animals were harvested 24 h after the last dose by anesthetization with ketamine/xylazine. Blood was collected from the aorta. Serum total calcium was measured using the QuantiChrom Calcium Assay kit and/or the Roche Hitachi 912 Chemistry Analyzer. Serum PTH was measured using a PTH Immunoassay. Vehicle control was 100 l/mouse of 5% EtOH/95% propylene glycol for i.p. dosing or 10 ml/kg of 20% Hydroxypropyl-β-Cyclodextrin for p.o. gavage dosing.
For serum chemistry data, group mean±SEM are presented. Differences between vehicle and compound-treated groups are assessed using a one-way ANOVA followed by a Dunnett's post-hoc test. FIGS. 3A and 3B show the results from a typical p.o. gavage dosing study (n=4-9 per group).

For data set [3], the system named is CYP24A1. As to the kind of experiment: CYP24A1 expression induction in HL-60 promyelocytic leukemia cells (real-time RT-PCR). Conditions: Homo sapiens, HL-60 cells. It is filed as cell-based. As for the experimental part:
(§5) Some compounds were tested in HL-60 promyelocytic leukemia cells and a primary culture of human coronary artery smooth muscle cells (HCASMC) for CYP24A1 induction. It is well documented that CYP24A1 has a VDRE in its promoter region and is a specific target gene of VDR (Meyer et al., 2007, J Biol Chem 282: 22344-22352). […] Compounds also were tested in HCASMC for their effects in inducing VDR. To assess the suitability of a compound for modulating immune responses, compounds were tested in HL-60 for their effects in inducing CD14 expression. To assess the suitability of a compound for treating thrombosis, compounds also were tested in HCASMC for their effects in modulating thrombomodulin and thrombospondin-1.
(§6) Compounds are tested in human HL-60 promyelocytic leukemia cells to assess their potency in inducing the expression of CYP24A1 and CD14. HL-60 cells are cultured in IMDM supplemented with 20% heat-inactivated fetal bovine serum at 37° C. in a humidified 5% CO2-95% air atmosphere. Cells are plated into 6 well plates and treated with test agent for 24 h. Cells are lysed with the addition of 1 mL of Trizol and RNA prepared according to the manufacturer's protocol.
(§7) Real-time reverse transcription-PCR is performed with the forward and reverse PCR primers and 250 nM of the TAQMAN™ probe specifically designed for CYP24A1 or CD14. (A TAQMAN™ probe is comprised of a fluorophore covalently attached to the 5′-end of the oligonucleotide probe and a quencher at the 3′-end.) After the data acquisition, the CYP24A1 or CD14 mRNA expression level is normalized to the GAPDH mRNA level. FIGS. 2A and 2B show the results from a typical CYP24A1 (FIG. 2A) and CD14 (FIG. 2B) expression study.

The test system of a further data set is CD14. As to the kind of experiment: CD14 expression induction in HL-60 promyelocytic leukemia cells (real-time RT-PCR). It is filed as cell-based. The settings on record: Homo sapiens, HL-60 cells. As for the experimental part: as §5, §6, §7
A general note: In qPCR the cycle at which signal appears reflects the starting amount.

Data set [4] concerns CYP24A1. Kind of data set: CYP24A1 expression induction in primary culture of human coronary artery smooth muscle cells. The class given is cell-based. Conditions: HCASMC. The method, then: as §1, §2, §3, §4
Setting [5] is: 24 h, Table 4 summary, some values average of 2 or more determinations, read-out: EC50 for VDR induction.
[6] abbreviates: i.p. 3 times/week for two weeks.
Where [7] appears, read: 5/6 NX uremic rats, i.p. 3 times/week for two weeks.
Setting [8] is: 24 h, mRNA normalized to GAPDH, Table 3 summary, some values average of 3 or more determinations, read-out: CYP24A1 EC50.
The mark [9] stands for this setting: 24 h, mRNA normalized to GAPDH, Table 3 summary, some values average of 3 or more determinations, read-out: CD14 EC50.
[10] abbreviates: 24 h, Table 4 summary, some values average of 2 or more determinations, read-out: EC50 for CYP24A1 induction.

Read-outs that look alike come from different tables or passages of the source.

Broadly, the EC50 is the concentration at which the effect is half-maximal. For the compound `CCC(O)(CC)CCO[C@H](C)C1CCC2/C(=C/C=C3C[C@@H](O)C4(CC4)[C@H](O)C3)CCCC21C` (stereo partly drawn) [Vida-10, (4R,8R)-6-((E)-2-((1S,7αS)-1-((R)-1-(3-ethyl-3-hydroxypentyloxy)ethyl)-7α-methyldihydro-1H-inden-4(2H,5H,6H,7H,7αH)-ylidene)ethylidene)spiro[2.5]octane-4,8-diol], in the data set on VDR (setting [5]), the EC50 came to 0.61 nM. In data set [1], the maximal absorbance wavelength was 253 nm and the extinction coefficient was 46990. In addition, in data set [2] (setting [6]), the “effect on BUN” value is given as “did not significantly affect”, the “effect on serum creatinine” value was “did not significantly affect” and the “effect on serum phosphorus” value is “did not significantly affect”. Further, in data set [2] (5/6 NX uremic rats, FIG. 11A), the “fold less potent in raising serum Ca than Vida-11” value was “at least 64 fold”. Further, the “fold less potent in suppressing PTH than Vida-11” value in data set [2] (5/6 NX uremic rats, FIG. 11B) is on record as “about 16 fold”. Further, the “dose at which compound starts to suppress serum PTH” value (from here on “dose … to suppress serum PTH”) in data set [2] (setting [7]) turned out to be 0.16 µg/kg. Besides, the “dose at which compound starts to raise serum Ca” value in the data set on normal mice was 1 µg/kg. For the same compound, the EC50 in the data set with CYP24A1 [3] (setting [8]) was 6.8 nM. Also, the EC50 in the data set with CD14 (setting [9]) is 0.4 nM. For the same compound, the EC50 with CYP24A1 [4] (setting [10]) was 0.39 nM.
Consider `C=C1[C@H](O)CC(=C/C=C2\CCCC3(C)C2CCC3[C@@H](C)OCCC(O)(CC)CC)C[C@H]1O` (stereo partly drawn) [Vida-11, (1R,3R)-5-((E)-2-((1S,3αS,7αS)-1-((R)-1-(3-ethyl-3-hydroxypentyloxy)ethyl)-7α-methyldihydro-1H-inden-4(2H, 5H, 6H, 7H, 7αH)-ylidene)ethylidene)-2-methylenecyclohexane-1,3-diol], for which the EC50 in the data set on VDR (setting [5]) worked out at 1.4 nM. Moreover, in data set [1], the maximal absorbance wavelength turned out to be 254 nm and the extinction coefficient stood at 60100. Moreover, in data set [2] (setting [6]), the “effect on BUN” value is “no dose-dependent effect”, the “effect on serum PTH” value was “significantly suppress PTH levels in a dose-dependent manner”, the “effect on serum calcium” value is on record as “elevated serum Ca in a dose-dependent manner” and the “effect on serum creatinine” value is “no dose-dependent effect”. The “effect on serum phosphorus” value in data set [2] (setting [6]) was “did not show a significant effect”. Also, in data set [2] (setting [7]), the “dose at which compound raises serum Ca” value came to 0.01 µg/kg and the “dose … to suppress serum PTH” value was found to be 0.01 µg/kg. Besides, the “dose at which compound starts to raise serum Ca” value with normal mice was 0.1 µg/kg. The EC50 in the data set on CYP24A1 [3] (setting [8]) came to 0.8 nM. Besides, in the data set with CD14 (setting [9]), the EC50 was 0.9 nM. The EC50 in the data set on CYP24A1 [4] (setting [10]) is 0.39 nM.
With `C=C1[C@H](O)CC(=C/C=C2\CCCC3(C)C2CCC3[C@@H](C)OC[C@H](C)C(C)(C)O)C[C@H]1O` (stereo partly drawn) [Vida-5, (1R,3R)-5-((E)-2-((3αS,7αS)-1-((R)-1-((S)-3-hydroxy-2,3-dimethylbutoxy)ethyl)-7α-methyldihydro-1H-inden-4(2H,5H,6H, 7H, 7αH)-ylidene)ethylidene)-2-methylenecyclohexane-1,3-diol], the EC50 is 3.2 nM in the data set with VDR (setting [5]); 1.3 nM with VDR (typical study, FIG. 5B, read-out: EC50 for inducing VDR expression); 7.3 nM in the data set with CYP24A1 [3] (setting [8]); 5.6 nM in the data set on CYP24A1 [3] (typical study, FIG. 2A, read-out: EC50 for inducing CYP24A1 expression); 3.7 nM in the data set with CD14 (setting [9]); 4.1 nM with CD14 (typical study, FIG. 2B, read-out: EC50 for inducing CD14 expression). For the same compound, the EC50 was found to be 2 nM in the data set with CYP24A1 [4] (setting [10]) and 2.9 nM with CYP24A1 [4] (typical study, FIG. 5A, read-out: EC50 for inducing CYP24A1 expression). In data set [1], this compound returned a maximal absorbance wavelength of 253 nm. Besides, in data set [1], the extinction coefficient stood at 48360. Also, the “maximal absorbance wavelength (ODmax)” value in data set [1] (FIG. 1, typical absorbance profile) is 253 nm. In addition, the “effect on BUN” value in data set [2] (setting [6]) was “significantly reduced BUN at the two higher doses (0.16 and 0.64 μg/kg)”. Also, the “effect on serum PTH” value in data set [2] (setting [6]) was “significantly suppress PTH levels in a dose-dependent manner”. Also, the “effect on serum calcium” value in data set [2] (setting [6]) was “did not have a significant effect”. Further, the “effect on serum creatinine” value in data set [2] (setting [6]) is reported as “at the 4 lower doses, had no significant effect on serum creatinine, but the highest dose reduced serum creatinine”. For the same compound, the “effect on serum phosphorus” value in data set [2] (setting [6]) was “did not have a significant effect”. The “dose … to suppress serum PTH” value in data set [2] (setting [7]) was 0.004 µg/kg. Further, the “dose at which compound starts to raise serum Ca” value in the data set with normal mice is 1 µg/kg. In addition, the “dose at which compound starts to raise serum calcium” value in the data set on normal mice (p.o. gavage once daily for 5 days, FIG. 3A) was 5 µg/kg. For the same compound, the “dose at which compound starts to suppress PTH” value in the data set on normal mice (p.o. gavage once daily for 5 days, FIG. 3B) is 0.05 µg/kg.
